# Compound: COc1cc2nc(N3CCCN(C)CC3)nc(NC3CCN(Cc4ccccc4)CC3)c2cc1OC + CCNC(=O)c1noc(-c2cc(C(C)C)c(O)cc2O)c1-c1ccc(CN2CCOCC2)cc1 [Luminespib] (partner 0.01 µM)
# Experiment: relative viability (nuclei count vs DMSO), 5 days (fraction); higher = more cells survive
# Conditions: first compound 0.2 µM
# Summary of the method: (§1)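 Five library-drug doses in √10 steps were combined with a fixed anchor-drug dose, or a single drug was given alone, by pin tool to lung cancer cell lines in 1536-well plates the day after seeding. Nuclei were stained and counted after 5 days. Relative viability is the nuclei count in treated wells over that in vehicle wells, taken as the median of duplicate plates.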
row,Cell Line,relative viability
1,NCI-H2342,0.689
2,NCI-H1623,0.493
3,NCI-H727,0.332
4,NCI-H1650,0.181
5,NCI-H1993,0.818
6,SW 1573,0.179
7,NCI-H838,0.378
8,LCLC-103H,0.905
9,NCI-H520,0.321
10,NCI-H2126,0.877
11,EMC-BAC-2,1.09
12,NCI-H2085,0.458
13,NCI-H1666,0.973
14,NCI-H596,0.87
15,LK-2,0.188
16,NCI-H2087,0.188
17,SK-MES-1,0.836
18,H3255,1.14

row,Cell Line,relative viability
1,COR-L23,0.752
2,COR-L 105,0.948
3,LOU-NH91,0.383
4,ChaGo-K-1,0.569
5,NCI-H2170,0.887
6,NCI-H2405,0.778
7,HOP-62,0.907
8,HCC-44,0.96
9,NCI-H522,1.03
10,LU99A,0.258
11,BEN,0.415
12,HARA,0.703
13,SW 900,0.143
14,NCI-H322M,0.766
15,LCLC-97TM1,0.79
16,NCI-H2009,1.05
17,A-427,0.934
18,NCI-H1563,0.544

# Same assay, conditions: first compound 0.6325 µM
row,Cell Line,relative viability
1,NCI-H2342,0.673
2,NCI-H1623,0.586
3,NCI-H727,0.355
4,NCI-H1650,0.19
5,NCI-H1993,0.719
6,SW 1573,0.27
7,NCI-H838,0.324
8,LCLC-103H,1.08
9,NCI-H520,0.227
10,NCI-H2126,0.864
11,EMC-BAC-2,1.17
12,NCI-H2085,0.393
13,NCI-H1666,0.997
14,NCI-H596,0.871
15,LK-2,0.188
16,NCI-H2087,0.162
17,SK-MES-1,0.702
18,H3255,0.852
19,COR-L23,0.731

row,Cell Line,relative viability
1,COR-L 105,0.899
2,LOU-NH91,0.295
3,ChaGo-K-1,0.671
4,NCI-H2170,0.648
5,NCI-H2405,0.673
6,HOP-62,0.856
7,HCC-44,1.08
8,NCI-H522,1.23
9,LU99A,0.246
10,BEN,0.737
11,HARA,0.467
12,SW 900,0.188
13,NCI-H322M,0.943
14,LCLC-97TM1,0.73
15,NCI-H2009,1.08
16,A-427,0.784
17,NCI-H1792,0.377
18,NCI-H1563,0.515

# Same assay, conditions: first compound 2 µM
row,Cell Line,relative viability
1,NCI-H2342,0.677
2,NCI-H1623,0.502
3,NCI-H727,0.512
4,NCI-H1650,0.197
5,NCI-H1993,0.923
6,SW 1573,0.356
7,NCI-H838,0.296
8,LCLC-103H,0.976
9,NCI-H520,0.27
10,NCI-H2126,0.754
11,EMC-BAC-2,1.2
12,NCI-H2085,0.373
13,NCI-H1666,1.11
14,NCI-H596,0.927
15,LK-2,0.164
16,NCI-H2087,0.364
17,SK-MES-1,0.889
18,H3255,0.878
19,COR-L23,0.761

row,Cell Line,relative viability
1,COR-L 105,1.02
2,LOU-NH91,0.359
3,ChaGo-K-1,0.74
4,NCI-H2170,0.88
5,NCI-H2405,0.75
6,HOP-62,0.817
7,HCC-44,1.34
8,NCI-H522,1.32
9,LU99A,0.225
10,BEN,0.264
11,HARA,0.744
12,SW 900,0.18
13,NCI-H322M,0.799
14,LCLC-97TM1,0.822
15,NCI-H2009,1.06
16,A-427,0.8
17,NCI-H1792,0.419
18,NCI-H1563,0.506

# Same assay, conditions: first compound 6.325 µM
row,Cell Line,relative viability
1,NCI-H2342,0.75
2,NCI-H1623,0.513
3,NCI-H727,0.56
4,NCI-H1650,0.174
5,NCI-H1993,0.867
6,SW 1573,0.152
7,NCI-H838,0.294
8,LCLC-103H,1.01
9,NCI-H520,0.214
10,NCI-H2126,0.815
11,EMC-BAC-2,1.14
12,NCI-H2085,0.404
13,NCI-H1666,0.947
14,NCI-H596,1.02
15,LK-2,0.186
16,NCI-H2087,0.136
17,SK-MES-1,0.129
18,H3255,0.898
19,COR-L23,0.614

row,Cell Line,relative viability
1,COR-L 105,0.469
2,LOU-NH91,0.367
3,ChaGo-K-1,0.527
4,NCI-H2170,0.69
5,NCI-H2405,0.786
6,HOP-62,0.952
7,HCC-44,1.34
8,NCI-H522,1.12
9,LU99A,0.231
10,BEN,0.516
11,HARA,0.736
12,SW 900,0.156
13,NCI-H322M,0.832
14,LCLC-97TM1,0.777
15,NCI-H2009,0.937
16,A-427,0.997
17,NCI-H1792,0.721
18,NCI-H1563,0.507

# Compound: COc1cc2nc(N3CCCN(C)CC3)nc(NC3CCN(Cc4ccccc4)CC3)c2cc1OC + Cc1nc(Nc2ncc(C(=O)Nc3c(C)cccc3Cl)s2)cc(N2CCN(CCO)CC2)n1 [Dasatinib] (partner 0.075 µM)
# Experiment: as above
# Conditions: first compound 0.2 µM
# Summary of the method: as §1
row,Cell Line,relative viability
1,NCI-H2342,0.34
2,NCI-H1623,0.517
3,NCI-H727,0.302
4,NCI-H1650,0.28
5,NCI-H1993,0.568
6,SW 1573,0.453
7,NCI-H838,0.316
8,LCLC-103H,0.394
9,NCI-H520,0.217
10,NCI-H2126,0.583
11,EMC-BAC-2,0.345
